ChEMBL document CHEMBL4616718, “Discovery of Potent Small-Molecule Inhibitors of MLL Methyltransferase” (ACS Med Chem Lett, 2020)

Each molecule was assayed against MLL1-ASH2L/RbBP5/WDR5/DPY30 (assay: Inhibition of recombinant human MLL1 complex (MLL1/Ash2L/RbBP5/WDR5/DPY-30) expressed in Escherichia coli Rosetta 2 (DE3) cells using H3 (1 to 21) peptide as substrate incubated for 1 hr in presence of 3[H] SAM by […] assay).

Structure (SMILES)	IC50
Nc1ncnc2c1ncn2[C@@H]1O[C@H](CN(CC[C@H](N)C(=O)O)CC2CN(CCCc3ccccc3)C2)[C@@H](O)[C@H]1O	29.6 nM
Nc1ncnc2c1ncn2[C@@H]1O[C@H](CN(CC[C@H](N)C(=O)O)CC2CN(Cc3ccc(Cl)cc3)C2)[C@@H](O)[C@H]1O	55.6 nM
NCCN(CC[C@H](N)C(=O)O)C[C@H]1O[C@@H](n2cnc3c(N)ncnc32)[C@H](O)[C@@H]1O	592 nM
Nc1ncnc2c1ncn2[C@@H]1O[C@H](CN(CC[C@H](N)C(=O)O)C2CN(CCCC3CCCC3)C2)[C@@H](O)[C@H]1O	234 nM
Nc1ncnc2c1ncn2[C@@H]1O[C@H](CN(CC[C@H](N)C(=O)O)CC2CN(Cc3ccccc3Cl)C2)[C@@H](O)[C@H]1O	150 nM
Nc1ncnc2c1ncn2[C@@H]1O[C@H](CN(CC[C@H](N)C(=O)O)CC2CN(Cc3coc4ccccc34)C2)[C@@H](O)[C@H]1O	119 nM
Nc1ncnc2c1ncn2[C@@H]1O[C@H](CN(CC[C@H](N)C(=O)O)CC2CN(Cc3cccc(Cl)c3)C2)[C@@H](O)[C@H]1O	99.5 nM
Nc1ncnc2c1ncn2[C@@H]1O[C@H](CN(CC[C@H](N)C(=O)O)CC2CN(CCC(c3ccccc3)c3ccccc3)C2)[C@@H](O)[C@H]1O	138 nM
Nc1ncnc2c1ncn2[C@@H]1O[C@H](CN(CC[C@H](N)C(=O)O)C2CC(NCCCC3CCCC3)C2)[C@@H](O)[C@H]1O (some centres undefined)	127 nM
Nc1ncnc2c1ncn2[C@@H]1O[C@H](CN(CC[C@H](N)C(=O)O)CC2CN(Cc3cccs3)C2)[C@@H](O)[C@H]1O	66.5 nM
Nc1ncnc2c1ncn2[C@@H]1O[C@H](CN(CC[C@H](N)C(=O)O)C2CC(CNCCCc3ccccc3)C2)[C@@H](O)[C@H]1O (some centres undefined)	451 nM
CCCCN1CC(CN(CC[C@H](N)C(=O)O)C[C@H]2O[C@@H](n3cnc4c(N)ncnc43)[C@H](O)[C@@H]2O)C1	72.4 nM
Nc1ncnc2c1ncn2[C@@H]1O[C@H](CN(CC[C@H](N)C(=O)O)CC2CN(CCCC3CCCC3)C2)[C@@H](O)[C@H]1O	25.5 nM
Nc1ncnc2c1ncn2[C@@H]1O[C@H](CN(CC[C@H](N)C(=O)O)CC2CN(Cc3ccoc3)C2)[C@@H](O)[C@H]1O	21.8 nM
Nc1ncnc2c1ncn2[C@@H]1O[C@H](CN(CC[C@H](N)C(=O)O)Cc2cn(CCc3ccccc3)nn2)[C@@H](O)[C@H]1O	132 nM
Nc1ncnc2c1ncn2[C@@H]1O[C@H](CN(CC[C@H](N)C(=O)O)CC2CN(Cc3ccsc3)C2)[C@@H](O)[C@H]1O	15.2 nM
Nc1ncnc2c1ncn2[C@@H]1O[C@H](CN(CC[C@H](N)C(=O)O)CC2CN(Cc3ccccc3)C2)[C@@H](O)[C@H]1O	46.8 nM
Nc1ncnc2c1ncn2[C@@H]1O[C@H](CN(CCCNCCCc2ccccc2)CC[C@H](N)C(=O)O)[C@@H](O)[C@H]1O	201 nM
Nc1ncnc2c1ncn2[C@@H]1O[C@H](CSCC[C@H](N)C(=O)O)[C@@H](O)[C@H]1O [S-ADENOSYLHOMOCYSTEINE]	724 nM
